Structure (SMILES) | melting point [°C]
CCc1c(OC)cc(/C=C(\SC)S(C)=O)cc1OC (stereo not drawn) | 82 to 83
CC(C)(C)OC(=O)CN1C(=O)[C@@H](NC(=O)OC(C)(C)C)CC(=O)c2ccccc21 | 75 to 77
CC(C)(C)NC(=O)[C@H](Cc1ccc(OCc2c(Cl)cccc2Cl)cc1)NC(=O)OC(C)(C)C | 82 to 86
O=C(O)C(=O)c1ccc(OCCOc2cc3ccccc3c3ccccc23)cc1 | 179 to 180
COc1ccc(Cn2ccnc2)cc1 | 157 to 159
CC12CCC3C(CCC4C(O)CCCC43C)C1CCC2OC1CCCCO1 (stereo not drawn) | 167 to 170
CS(=O)(=O)N1Cc2sccc2C(O)C1 (stereo not drawn) | 140
CN(CCOc1ccc(CC2SC(=O)NC2=O)cc1)C(=O)c1ccccc1 (stereo not drawn) | 139 to 142
CCOC(=O)CCCCC(NS(=O)(=O)c1ccccc1)c1ccc2ccccc2c1 (stereo not drawn) | 81 to 84
NC(=O)NCc1ccc(CNC(=O)[C@@H](CCCNC(N)=N[N+](=O)[O-])NC(=O)Cc2ccc(O)cc2)cc1 | 168 to 170
Cc1nc(C(F)(F)F)ccc1C(=O)C1=C(S(=O)(=O)c2ccccc2)CCCC1=O | 165 to 167
OCCc1ccc2c(c1)C(O)c1ccccc1CO2 (stereo not drawn) | 135 to 137
CC(C)(C)C(O)(Cn1cncn1)C1CCC1 (stereo not drawn) | 94 to 99.5
CCOC(=O)CNC(=O)c1nc2ccc(NCCCN3CCC(OC(c4ccccc4)c4ccccc4)CC3)nn2c1Cl | 178 to 180
CC1=C(C(O)c2ccc3c(c2)CCN(C(N)=O)C3)C(C)(C)CC1 (stereo not drawn) | 68.6 to 69.6
N#CSCSc1nc(Cl)c(Cl)nc1Cl | 90 to 93
CS(=O)(=O)Nc1ccc(C(CC2CCCC2)C(=O)Nc2nccs2)cc1 (stereo not drawn) | 85 to 90
COC(=O)c1cc(O)nn1-c1ccccc1 | 227 to 228
Brc1ccc2c(c1)cc1n2CCC1 | 78.7 to 79.4
Nc1ncc(S(=O)c2ccc(F)cc2F)s1 (stereo not drawn) | 171 to 172
O=C(NC(Cc1c[nH]c2ccccc12)C(=O)CCc1cc(C(F)(F)F)cc(C(F)(F)F)c1)c1ccccc1 (stereo not drawn) | 119 to 122

Structure (SMILES) | melting point [°C]
CC(C)n1nc(-c2cnc(N)nc2-c2ccccc2Cl)ccc1=O | 227 to 228
O=C(O)C(=O)c1ccc(OCCCCCCCCCCCCOc2ccccc2)cc1 | 98 to 100
OCc1conc1-c1ccc(Cl)c(F)c1 | 124 to 125
COCc1cc([N+](=O)[O-])ccc1C | 45 to 49
O=C1c2ccccc2C(=O)N1CC(=O)N1c2ccccc2N(CCCc2ccccc2)C(=O)[C@H]2CCC[C@H]21 (relative stereo) | 192 to 193
CN(C)Cc1nnc2n1-c1ccc([N+](=O)[O-])cc1C(c1ccccc1)=[N+]([O-])C2 | 228 to 230
Cc1c(-c2ccccc2)on(CC(O)CCl)c1=O (stereo not drawn) | 82 to 83
Cc1cc(OCC(O)CNC(C)C)c2cc(C(=O)N(C)C)[nH]c2c1 (stereo not drawn) | 169 to 171
NC(=O)Cc1nc(-c2ccc(Cl)cc2)sc1-c1ccccc1 | 202 to 203
O=C1c2ccccc2S(=O)(=O)N1c1c(F)c(F)nc(F)c1F | 164 to 165
CCOC(=O)C(Cc1c[nH]c2c(C(=O)c3ccc(Cl)cc3)cccc12)C(=O)OCC | 197 to 201
Cc1cccc(NC(=O)NC2N=C(C3CCCC3)c3ccccc3N(Cc3ncccc3C)C2=O)c1 (racemic) | 198 to 199
COc1cc(N2CCN(C[C@H](C)O)CC2)c(F)cc1Nc1ncc2ccc(-c3ccccc3N(C)S(C)(=O)=O)n2n1 | 116 to 120
COC(=O)NCCSc1cccc2nccn12 | 198 to 200
C(=CCN(c1ccccc1)c1cccc2ccccc12)CN(c1ccccc1)c1cccc2ccccc12 | 140 to 142
CCCCc1nnc(-c2ccco2)n1Cc1ccc(NC(=O)c2ccccc2C(=O)O)cc1 | 170 to 171
CC(=O)Nc1ccc(/C(=C/N2CCOCC2)C(=S)N2CCOCC2)cc1 | 145 to 147
C=CCOC(=O)C(C(=O)OCC=C)=C1SC(O)C(O)S1 (stereo not drawn) | 81.2
COc1ccc(Br)c(C=O)c1O | 102 to 103
COc1cccc2cc(C3CCN(C)CC3)oc12 | 74 to 75
COc1ccc2ccccc2c1-c1c(C)c2c(c(C)c1P(=O)(c1ccccc1)c1ccccc1)CCC2 | 70.8 to 72.1

The remaining lines, values ahead:

melting point [°C] | Structure (SMILES)
94 to 102 | CN1CCC(Nc2nc3ccccc3n2Cc2ccccc2)CC1
168 | Cc1c(NC(=O)c2ccc(OC[C@@H]3CCCO3)cc2)ccc2cc(CNCC(C)(C)C)[nH]c12
81 to 84 | OCc1cncn1-c1ccccc1
165 to 168 | COc1ccc(C)cc1NC(=O)Nc1ccc(N2CCN(C(=O)Nc3ncccc3C(=O)O)CC2)cc1
86 to 87 | CC(=O)OC1C=C(C)C(=O)CC(C)(C)C1OC(=O)c1ccccc1 (stereo not drawn)
140 to 142 | CCO/C(=N/OC(C)=O)C1Cc2cc(C(=O)CC)c(O)c(Cl)c2O1 (stereo not drawn)
103 to 110 | CCc1cc(=O)cc(CC)[nH]1
184 to 186 | CSc1ncc(C=O)c(N)n1
141 | COc1cc(OCC(=O)O)c(C)cc1SCc1ccc(-c2c(C)cc(C)cc2C)cc1
213 to 215 | CCOc1cc2c(Nc3cc(OC)c(Cl)cc3Cl)c(C#N)cnc2cc1I
82 to 85 | OCc1c(Cl)ccc(C2OCCO2)c1Cl
67 to 68 | C=CCNC(=S)Cc1ccccn1
130 to 131 | CCOC(=O)C(CNC(=O)CSC(=O)c1ccccc1)NC(=O)CSC(=O)c1ccccc1 (stereo not drawn)
77.5 to 79 | COc1ccc2c(c1)c(Cc1cc(=O)n(-c3cc(C)cc(C)c3)[nH]1)c(C)n2C(=O)c1ccc(Cl)cc1
171 to 173 | Cn1c(=O)c2cccc(N)c2c(=O)c2ccccc21
91 | ON=C(Cc1ccc(Cl)cc1)c1ccc(Cl)cc1Cl

melting point [°C] | Structure (SMILES)
114 to 116 | C=CCc1c(O)cc(C)c(O)c1C
129 | CC(C)(C)c1ccc(-c2cc(C=O)cc3c2C(C)(C)CCC3(C)C)cc1
176 to 183 | O=C(O)C(c1ccccc1)N1CC(N2C(=O)c3ccccc3C2=O)C1=O (stereo not drawn)
66 to 68 | CCCc1c(O)ccc(C(=O)OC)c1O
114 to 115 | COc1ccc(Cn2c(=O)c3cccnc3n(CCCCl)c2=O)cc1
205 to 209 | CC(C)c1cc(NC(=O)C(CS)Cc2ccccc2)cc(C(=O)O)c1 (stereo not drawn)
173 to 175 | O=C(c1ccc(Cc2c(Cl)cc(NN=Cc3ccccc3)cc2Cl)cc1)c1cnc(Cl)c(Cl)c1
146 to 147 | COC(=O)CNc1cccc(C(N)=O)c1
152 | O=C1NC(=O)C(Nc2ccc(CCNCC(O)COc3ccc(OCc4ccccc4)cc3)cc2)S1 (stereo not drawn)
186 to 191 | COC(=O)c1ccc(O)nc1C1=NC(C)(C(C)C)C(=O)N1 (stereo not drawn)
205 to 210 | OCCN1CCN(C2=Nc3cc(F)ccc3Nc3ccsc32)CC1
320 to 326 | O=S1(=O)N=C(NC2CCC2)Nc2cc(Cl)c(Cl)cc21
247 to 248 | CCCCCCCCCCOc1ccc(C(=O)Nc2ccc(C(=O)O)cc2)cc1C12CC3CC(CC(C3)C1)C2
148 to 150 | O=C(O)C=CC=CCS(=O)(=O)c1ccccc1
270 to 273 | Oc1nc2cc(Cl)cc(Cl)c2c(O)c1O

From a melting point compilation (Tetko et al.; mined from patent text by program, amines drawn as free bases though some values may be those of a salt)
